# Reference: patent publication US20250179481A1, “COMPOSITIONS AND METHODS FOR TARGETING, EDITING, OR MODIFYING GENES” (Celyntra Therapeutics SA, priority 2021, published 2025)
# Columns and labels:
# [1] = tested on: predicted off-target sites; assay: INDEL frequency at predicted off-target sites (CasOFFinder, targeted deep sequencing) in Jurkat cells; format: cell-based, human; conditions: crPDCD1: <=4 mismatches, remaining gNAs <=3 mismatches, vs MOCK, Pairwise T-test
# Method: Another consideration for selecting gNAs is the potential for off-target cleavage events. The list of validated gNAs was analyzed using the CasOFFinder software to predict potential off-target editing sites in the genome with up to four mismatches between the gNA and the target DNA sequence. Using the Bioconductor R packages, the predicted off-target sites were matched with the human gene database, and those sites that targeted exons and introns within the genes were extracted. Afterwards, the degree of editing activity at these sites was examined by targeted next-generation sequencing, more specifically, at 25 predicted off-target sites for the top-two PDCD1 gNAs, i.e., crPDCD1_1 and crPDCD1_2. […] INDEL frequency at 43 putative off-target sites with up to three mismatches between gNA and target DNA sequence were assayed for the top-two gNAs targeting seven remaining genes (i.e., TIM3, LAG3, TIG1T, CTLA4, PTPN6, PTPN11, and CD247; spacer sequences in Table 5). […] Specifically. FIGS. 18-19 show INDEL frequency of MAD7 (n=3; Mean±SD) in T-cell leukemic cell line at predicted off-target sites analyzed by targeted deep sequencing. For crPDCD1. INDEL frequency was analyzed at the putative off-target editing sites with ≤4 mismatches between the gNA and target DNA sequence, and with ≤3 mismatches on the remaining gNAs.
# TIM3 = assay: gNA validation: frameshift (ORF disruption) frequency, TIM3; format: cell-based, human; conditions: Jurkat, CRISPResso2 ORF analysis
# Method: Initial quality assessment of the obtained reads was performed with FastQC36. The sequencing data were aligned and analyzed with the CRISPResso2 software, using CRISPRessoBatch command with the parameters—cleavage_offset 1—quantification_window_size 10—quantification_window_center 1—expand_ambiguous_alignments for the INDEL frequency analysis. For the ORF disruption analysis, CRISPRessoBatch command with the parameters—cleavage_offset 1—coding_seq <EXON_SEQ>—quantification_window_size 0—quantification_window_center 1—expand_ambiguous_alignments was used. Modification rates from the CRISPResso2 software output were analyzed in Excel.
# (§1) High-efficiency gNAs identified in our initial analysis were validated by assaying INDEL frequency for the top three or five gNAs for each of the selected immunologically relevant genes (FIG. 15). […] Alternating grey and white zones on the plot represent groups of three to five high-efficiency gNAs per locus. […] Using the CRISPresso2 software, the degree of open reading frame (ORF) disruption for each of the validated gNAs was estimated (FIG. 15). In addition, for four high-efficiency gNAs targeting three different exons at the PDCD1 locus, surface expression of the PDCD1 protein was measured by flow cytometry 4, 7, and 11 days post-transfection (data not shown).
# Average fraction of INDELs leading to frameshifts (dashed line) is approx. 66%. […]
# PDCD1 protein = assay: Surface expression of the PDCD1 protein by flow cytometry in Jurkat cells; format: cell-based, human; conditions: flow cytometry 4, 7 and 11 days post-transfection, crPDCD1_2 value at day 4, same at day 11
# Method: For detection of PDCD1 knock-out efficiency, approx. 250,000 Jurkat cells per sample were transferred onto 96-well V-bottom cell culture plates and assessed following a series of consecutive washing and staining steps. The first step included centrifuging the cells at 300 g for 5 minutes at 4° C., and discarding the supernatant. Afterwards, the cells were stained using 100 μL Cell Staining Buffer (Biolegend) with APC/Cyanine7 anti-human CD279 (PD-1) antibody (1:100: Biolegend) and incubated for 30 minutes at 4° C., in the dark. The cells were then centrifuged at 300 g for 5 minutes at 4° C., and the supernatant discarded. The next step included two repeats of centrifugation at 300 g for 5 minutes at 4° C., supernatant removal, and cell washing in 150 μL ice-cold Cell Staining Buffer (Biolegend). In the final step, the cells were re-suspended in 100 μL Cell Staining Buffer for the flow cytometry measurements (excitation: red laser; emission: […]).
# as §1
# CSF2 [2] = assay: Functional KO in Pan T-cells: intracellular CSF2 staining after PMA and Ionomycin; format: cell-based, human
# Method: Protein expression for targeted genes was measured by antibody staining against the target protein to quantify functional disruption of the target gene. The efficiency of functional disruption was verified by antibody staining and quantified as the negative cell population by flow cytometry. TRBC, CD3E and CD40LG are located at the cell surface and living cells were stained with the corresponding antibodies. Since CSF2 is a secreted protein, cells were first activated, secretion was blocked, cells were fixed with formaldehyde, and permeabilized before the staining procedure. Given CD40LG and CSF2 are expressed upon stimulation of primary T-cells, cells were activated first to enhance their expression. The induction of CD40LG and CSF2 was achieved using anti-CD3/CD28 and PMA/Ionomycin, respectively.
# The best CSF2 gRNA was identified as gCSF2_007 in the Jurkat experiment. In Pan T-cells, the cutting efficiency was approximately 65% and 45% and could be increased by ssODN inclusion to ˜80 and 70% for the regular and STAR design, respectively (FIG. 33E). […] The cells were treated with PMA and Ionomycin to strongly activate the cells and blocked the secretion of the protein with Golgiplug and Golgistop and stained the cells after fixation and permeabilization for the intracellular accumulated CSF2 proteins.
# CSF2 [3] = assay: On-target Amplicon-NGS in Pan T-cells, CSF2; format: cell-based, human
# Excerpt: (§2) T-cells were isolated […] buffy coats and nucleofected after two days. The buffy coats were procured from the Rigshospitalet in Copenhagen, Denmark. The Pan-T cells were enriched by negative selection using an Easy Sep Human T-cell Isolation Kit from StemCell Technologies. The RNPs were formed by mixing gRNAs with Art-Mad7mam+ prior to nucleofection with Jurkat or T-cells. In some cases, synthetic ssODNs (Table 11) with a length of 200 nt were included in the transfections to evaluate impact on frame shift mutation rates by HDR rather than relying on NHEJ alone in an effort to maximize functional disruption. The ssODNs were designed to comprise a deletion of the spacer and PAM sequence thereby resulting in a programmed frame shift. After transfection, the cells were cultivated and assayed for the different readouts. The nucleofection with dual gRNAs followed a similar protocol, but with minor differences in pre-assembling of the gRNAs. Briefly, the two dual RNAs (modulator and targeter) are combined in a molecular ratio of 1:1 (400 μM Modulator
# (§3) At the genome level, Amplicon-NGS was used to determine the type and mutation frequency at the on-target site. The Amplicon-NGS assay is based on the amplification of the on-target site using specific primer pairs. The primers are designed to have the predicted cutting site at the center and a length of 180-280 nt. The amplicons are indexed for NGS and sequenced on an Illumina MiSeq system. The analysis was performed using the Crispresso script. Crispresso requires the input of a configuration file comprised of the specific gRNA sequence, primer sequences and the theoretical amplicon that is based on the alignment of the primer pair to the reference human genome GRCh38. In addition, for HDR analysis associated with ssODN-programmable editing a reference sequence with the specific mutations can be input into the configuration file. Crispresso aligns the sequencing reads to the reference amplicon and analyzes the mutation type and frequency −/+10 nt at the putative cut site of Art-Mad7mam+ based on the provided gRNA sequence. As output, Crispresso delivers different mutation types and their frequencies: Substitutions, INDELs, HDR Unmodified, HDR INDELs, HDR+substitutions.
# (§4) To further test the effects of ssODNs, single and dual gRNAs were mixed with Art-MAD7mam+ nuclease, and in some cases included a ssODN designed to create a programmed disruption in the target gene. The freshly isolated Pan-T cells were activated and cultured for 2 days, and RNPs−/+ssODNs were transfected using the Lonza 96-well plate shuttle. […]
# CSF2 [4] = assay: Cutting efficiency by Amplicon-NGS in Jurkat cells, CSF2; format: cell-based, human
# Excerpt: as §2
# At the genome level, Amplicon-NGS was used to determine the type and mutation frequency at the on-target site. The Amplicon-NGS assay is based on the amplification of the on-target site using specific primer pairs. […] Crispresso aligns the sequencing reads to the reference amplicon and analyzes the mutation type and frequency −/+10 nt at the putative cut site of Art-Mad7mam+ based on the provided gRNA sequence. […]
# The cutting efficiency was calculated as the percentage of reads with any NHEJ modification (including insertions, deletions, and/or substitutions) of the total number of reads that were aligned to the reference amplicon. […]
# The top gRNAs identified in the tiling experiments in, were further tested by performing additional nucleofections in Jurkat cells and measuring viability, INDEL formation by amplicon-NGS, and functional flow cytometry assays. […] For the Amplicon-NGS readout three days after transfection, genomic DNA was prepared, amplicons generated, and sequence analyzed. […]
# TRBC1 and TRBC2 = assay: On-target Amplicon-NGS in Pan T-cells, TRBC; format: cell-based, human
# Excerpt: as §2, §3, §4
# human genes = assay: Editing efficiency of tested crRNAs / guide nucleic acids (Tables 7-10) detected in human cells; format: cell-based; conditions: tested crRNAs targeting human genes
substance,measurement,setting,value
"crPDCD1_1: top-two PDCD1 gNA (guide GCACGAAGCTCTCCGATGTGT; spacer only, further chemistry not given here)",INDEL frequency at predicted off-target sites,[1],No significant INDEL frequency
"crTIM3_1: validated high-efficiency gNA, TIM3 (guide CTTGTAAGTAGTAGCAGCAGC; spacer only, further chemistry not given here)",frameshifts frequency (fraction of frameshift to INDEL),TIM3,23%
"crPDCD1_4: high-efficiency gNA targeting the PDCD1 locus (guide CTAGCGGAATGGGCACCTCAT; spacer only, further chemistry not given here)",surface expression of the PDCD1 protein,PDCD1 protein,85%
"crPDCD1_5: high-efficiency gNA targeting the PDCD1 locus (guide GTGCTAAACTGGTACCGCATG; spacer only, further chemistry not given here)",surface expression of the PDCD1 protein,PDCD1 protein,85%
"crPDCD1_3: high-efficiency gNA targeting the PDCD1 locus (guide CAGTGGCGAGAGAAGACCCCG; spacer only, further chemistry not given here)",surface expression of the PDCD1 protein,PDCD1 protein,35%
"crTIM3_3: validated high-efficiency gNA, TIM3 (guide TAAGTAGTAGCAGCAGCAGCA; spacer only, further chemistry not given here)",frameshifts frequency (fraction of frameshift to INDEL),TIM3,44%
"gCSF2_007: best CSF2 gRNA; dual form Targeter_CSF2_007 UUGUAGAUCACAGGAGCCGACCUGCCUAC (synthetic gRNA ordered from IDT, chemistry not given here)",negative CSF2 cell population,CSF2 [2]; dual gRNA,~60%
same,negative CSF2 cell population,CSF2 [2]; dual gRNA with the ssODN,~80%
same,negative CSF2 cell population,CSF2 [2]; regular gRNA with the ssODN,~90%
same,negative CSF2 cell population,"CSF2 [2]; regular gRNA, 70% of control cells CSF2 positive",~75%
same,cutting efficiency,CSF2 [3]; STAR design,~45%
same,cutting efficiency,"CSF2 [3]; STAR design, ssODN inclusion",~70%
same,cutting efficiency,CSF2 [3]; regular design,approximately 65%
same,cutting efficiency,"CSF2 [3]; regular design, ssODN inclusion",~80%
same,Average on-target editing efficiency,"CSF2 [4]; CSF2 gRNAs, Jurkat cells, Amplicon-NGS",31.1
same,Total score,"CSF2 [4]; CSF2 gRNAs, combines on-target editing efficiency and predicted off-target score",30.7
same,cutting efficiency (rank among the three CSF2 gRNAs),CSF2 [4]; Jurkat verification,highest
"gTRBC1_2_003: gRNA targeting both TRBC1 and TRBC2; dual form Targeter_TRBC1_2_003 UUGUAGAUAGCCAUCAGAAGCAGAGAUCU (dual-guide targeter with IDT AltR2 3' modification, chemistry undefined, further chemistry not given here)","lower INDEL frequency, dual vs regular configuration",TRBC1 and TRBC2,~5%
same,perfect HDR rate,TRBC1 and TRBC2; inclusion of ssODNs,~40%
same,mutation rate,"TRBC1 and TRBC2; inclusion of ssODNs, all cases",> 90%
same,INDEL frequency at the on-target site,TRBC1 and TRBC2; regular gRNA configuration,~90%
"gPD_23: spacer targeting PDCD1, SEQ ID NO 210, TCTGCAGGGACAATAGGAGCC (chemistry not given here)",% Indel,human genes; Target Gene PD,57.6%
gTIGIT_31 (guide AATGTCCTGAGTTACAGAAGC; chemistry not given here),% Indel,human genes; Target Gene TIGIT,0.5%
